Data from US10206937B2, “Boronic acid derivatives and therapeutic uses thereof” (Qpex Biopharma, Inc., priority 2014, dated 2019).

System: strains of Enterobacteriaceae producing various carbapenemases (class A, D and B; 104 strains)
Assay: Antibiotics potentiation by Compound 27 (MIC; meropenem, doripenem, ertapenem, cefepime)
Format: cell-based
Details: + 27 = with Compound 27 at fixed 4 μg/ml

For `COc1ccc2c(c1C(=O)O)OB(O)C(Sc1nnc(N)s1)C2` (stereo not shown) [D + 27], the MIC (strain CF1012 Citrobacter freundii (KPC-2)) was “X (MIC of less than 1 μg/mL)”, the MIC (strain CF1021 Citrobacter freundii (CMY-type; VIM-1)) was “X (MIC of less than 1 μg/mL)” and the MIC (strain CF1022 Citrobacter freundii (SHV-12(2be), TEM-OSBL(2b); IMP-8)) was “X (MIC of less than 1 μg/mL)”. The MIC (strain CF1023 Citrobacter freundii (SHV-12(2be), TEM-OSBL(2b); CTX-M-3; CMY-34; NDM-1)) was “X (MIC of less than 1 μg/mL)”, the MIC (strain CL1080 Enterobacter cloacae (IMP-1)) was “X (MIC of less than 1 μg/mL)” and the MIC (strain EA1019 Enterobacter aerogenes (SHV-5, VIM-1)) was “X (MIC of less than 1 μg/mL)”. For the same compound, the MIC (strain EC1007 Escherichia coli (KPC-3)) was “X (MIC of less than 1 μg/mL)”, the MIC (strain EC1061 Escherichia coli (NDM-1, CMY-6)) was “X (MIC of less than 1 μg/mL)” and the MIC (strain EC1062 Escherichia coli (OXA-48, CTX-M-15)) was “X (MIC of less than 1 μg/mL)”. The MIC (strain EC1064 Escherichia coli (NDM-1, CMY-6, CTX-M-15)) was “Y (MIC of 1 μg/mL to 10 μg/mL)”, the MIC (strain EC1065 Escherichia coli (IMP-1)) was “X (MIC of less than 1 μg/mL)” and the MIC (strain EC1068 Escherichia coli (VIM-1)) was “X (MIC of less than 1 μg/mL)”. For the same compound, the MIC (strain EC1069 Escherichia coli (CTX-M-27; NDM-1)) was “X (MIC of less than 1 μg/mL)”, the MIC (strain EC1070 Escherichia coli (TEM-OSBL(2b); CMY-42; NDM-5)) was “X (MIC of less than 1 μg/mL)” and the MIC (strain EC1072 Escherichia coli (CTX-M-3; NDM-1)) was “X (MIC of less than 1 μg/mL)”. For the same compound, the MIC (strain ECL1004 Enterobacter cloacae (NMC-A)) was “X (MIC of less than 1 μg/mL)”, the MIC (strain ECL1026 Enterobacter cloacae (KPC-2, TEM-1)) was “X (MIC of less than 1 μg/mL)” and the MIC (strain ECL1036 Enterobacter cloacae (KPC-3, TEM-1)) was “X (MIC of less than 1 μg/mL)”. The MIC (strain ECL1045 Enterobacter cloacae (VIM-1)) was “Y (MIC of 1 μg/mL to 10 μg/mL)”, the MIC (strain ECL1055 Enterobacter cloacae (KPC-3, TEM)) was “X (MIC of less than 1 μg/mL)” and the MIC (strain ECL1057 Enterobacter cloacae (NDM-1, TEM-1, CTX-M-15)) was “Z (MIC of greater than 10 μg/mL)”. The MIC (strain ECL1058 Enterobacter cloacae (KPC-3, SHV-11, TEM-1)) was “X (MIC of less than 1 μg/mL)”, the MIC (strain ECL1059 Enterobacter cloacae (KPC-3, SHV-12, TEM-1)) was “X (MIC of less than 1 μg/mL)” and the MIC (strain ECL1061 Enterobacter cloacae (KPC-3, Hyper AmpC expression)) was “X (MIC of less than 1 μg/mL)”. The MIC (strain ECL1082 Enterobacter cloacae (VIM-1)) was “X (MIC of less than 1 μg/mL)”, the MIC (strain ECL1084 Enterobacter cloacae (CTX-M-15; ACT-16; NDM-1)) was “X (MIC of less than 1 μg/mL)” and the MIC (strain ECL1085 Enterobacter cloacae (SHV-31(2be), TEM-1(2b); CTX-M-15; NDM-1)) was “X (MIC of less than 1 μg/mL)”. The MIC (strain ECL1086 Enterobacter cloacae (VIM-31, OXA-48(c))) was “X (MIC of less than 1 μg/mL)”, the MIC (strain ECL1087 Enterobacter cloacae (VIM-1)) was “X (MIC of less than 1 μg/mL)” and the MIC (strain ECL1088 Enterobacter cloacae (TEM-1(2b); CTX-M-14; ACT-type; VIM-1)) was “X (MIC of less than 1 μg/mL)”. For the same compound, the MIC (strain ECL1089 Enterobacter cloacae (ACT-type; IMP-1)) was “Y (MIC of 1 μg/mL to 10 μg/mL)”, the MIC (strain ECL1090 Enterobacter cloacae (TEM-1(2b); CTX-M-22; ACT-type; IMP-8)) was “X (MIC of less than 1 μg/mL)” and the MIC (strain ECL1091 Enterobacter cloacae (VIM-1)) was “Y (MIC of 1 μg/mL to 10 μg/mL)”. For the same compound, the MIC (strain ECL1092 Enterobacter cloacae (TEM-OSBL(2b); ACT-32; VIM-1)) was “X (MIC of less than 1 μg/mL)”, the MIC (strain ECL1093 Enterobacter cloacae (TEM-OSBL(2b); ACT-32; VIM-1)) was “X (MIC of less than 1 μg/mL)” and the MIC (strain ECL1094 Enterobacter cloacae (VIM-1)) was “X (MIC of less than 1 μg/mL)”. The MIC (strain ECL1096 Enterobacter cloacae (CMY-4, VIM-4, OXA-48(c))) was “X (MIC of less than 1 μg/mL)”, the MIC (strain ECL1097 Enterobacter cloacae (SHV-31(2be), TEM-OSBL(2b); CTX-M-15; ACT-31; NDM-1)) was “X (MIC of less than 1 μg/mL)” and the MIC (strain ECL1098 Enterobacter cloacae (TEM-OSBL(2b); DHA-1; ACT-16; NDM-1)) was “X (MIC of less than 1 μg/mL)”. The MIC (strain KP1001 Klebsiella pneumoniae (KPC TEM SHV)) was “Y (MIC of 1 μg/mL to 10 μg/mL)”, the MIC (strain KP1002 Klebsiella pneumoniae (KPC TEM SHV)) was “X (MIC of less than 1 μg/mL)” and the MIC (strain KP1003 Klebsiella pneumoniae (KPC TEM SHV)) was “X (MIC of less than 1 μg/mL)”. For the same compound, the MIC (strain KP1004 Klebsiella pneumoniae (KPC-2, TEM-1, SHV-11)) was “X (MIC of less than 1 μg/mL)”, the MIC (strain KP1008 Klebsiella pneumoniae (KPC-2)) was “X (MIC of less than 1 μg/mL)” and the MIC (strain KP1014 Klebsiella pneumoniae (VIM-1, TEM, SHV)) was “Y (MIC of 1 μg/mL to 10 μg/mL)”. The MIC (strain KP1054 Klebsiella pneumoniae (VIM-1, SHV-11)) was “X (MIC of less than 1 μg/mL)”, the MIC (strain KP1059 Klebsiella pneumoniae (VIM-1, SHV-11)) was “Y (MIC of 1 μg/mL to 10 μg/mL)” and the MIC (strain KP1061 Klebsiella pneumoniae (KPC-3, SHV-11, TEM-1)) was “X (MIC of less than 1 μg/mL)”. For the same compound, the MIC (strain KP1064 Klebsiella pneumoniae (KPC-2, SHV-11, TEM-1)) was “Y (MIC of 1 μg/mL to 10 μg/mL)”, the MIC (strain KP1065 Klebsiella pneumoniae (VIM-1, SHV-11)) was “X (MIC of less than 1 μg/mL)” and the MIC (strain KP1070 Klebsiella pneumoniae (KPC-2, SHV-11, TEM-1)) was “X (MIC of less than 1 μg/mL)”. The MIC (strain KP1074 Klebsiella pneumoniae (KPC-3, SHV-11, TEM)) was “Y (MIC of 1 μg/mL to 10 μg/mL)”.
